Data published in PubChem BioAssay (NCI).
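Following 48 hours of exposure in 96-well plates, responses at five concentrations were used to interpolate endpoints linearly. TGI marks complete inhibition of growth.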

Experiments:
Assay in all cases: inhibition of tumour cell growth, NCI panel, 48 h
OVCAR-3 ovarian = tested on: OVCAR-3 ovarian
ACHN renal = tested on: ACHN renal
MALME-3M melanoma = tested on: MALME-3M melanoma
T-47D breast = tested on: T-47D breast
UO-31 renal = tested on: UO-31 renal
MDA-N = tested on: MDA-N
EKVX NSCLC = tested on: EKVX NSCLC
SF-539 CNS = tested on: SF-539 CNS
NCI/ADR-RES ovarian = tested on: NCI/ADR-RES ovarian
U251 CNS = tested on: U251 CNS
RXF 393 renal = tested on: RXF 393 renal
HOP-92 NSCLC = tested on: HOP-92 NSCLC
SF-295 CNS = tested on: SF-295 CNS
HS 578T breast = tested on: HS 578T breast
PC-3 prostate = tested on: PC-3 prostate
OVCAR-5 ovarian = tested on: OVCAR-5 ovarian
HT29 colon = tested on: HT29 colon
OVCAR-8 ovarian = tested on: OVCAR-8 ovarian
786-0 renal = tested on: 786-0 renal
MOLT-4 leukemia = tested on: MOLT-4 leukemia
IGROV1 ovarian = tested on: IGROV1 ovarian
MCF7 breast = tested on: MCF7 breast
MDA-MB-435 = tested on: MDA-MB-435
LOX IMVI melanoma = tested on: LOX IMVI melanoma
COLO 205 colon = tested on: COLO 205 colon
NCI-H460 lung = tested on: NCI-H460 lung
SN12C renal = tested on: SN12C renal
OVCAR-4 ovarian = tested on: OVCAR-4 ovarian
HOP-62 NSCLC = tested on: HOP-62 NSCLC
SK-MEL-5 melanoma = tested on: SK-MEL-5 melanoma
SF-268 CNS = tested on: SF-268 CNS
K-562 leukemia = tested on: K-562 leukemia
SW-620 colon = tested on: SW-620 colon
SNB-19 CNS = tested on: SNB-19 CNS
UACC-257 melanoma = tested on: UACC-257 melanoma
SK-MEL-28 melanoma = tested on: SK-MEL-28 melanoma
NCI-H522 lung = tested on: NCI-H522 lung
DU-145 prostate = tested on: DU-145 prostate
NCI-H23 lung = tested on: NCI-H23 lung
SK-OV-3 ovarian = tested on: SK-OV-3 ovarian
MDA-MB-231 breast = tested on: MDA-MB-231 breast
HCT-15 colon = tested on: HCT-15 colon
NCI-H226 lung = tested on: NCI-H226 lung
SNB-75 CNS = tested on: SNB-75 CNS
SK-MEL-2 melanoma = tested on: SK-MEL-2 melanoma
KM12 colon = tested on: KM12 colon
UACC-62 melanoma = tested on: UACC-62 melanoma
TK-10 renal = tested on: TK-10 renal
SR leukemia = tested on: SR leukemia
HCC-2998 colon = tested on: HCC-2998 colon
RPMI-8226 leukemia = tested on: RPMI-8226 leukemia
M14 melanoma = tested on: M14 melanoma
CCRF-CEM leukemia = tested on: CCRF-CEM leukemia
A549 NSCLC = tested on: A549 NSCLC
HCT-116 colon = tested on: HCT-116 colon
A498 renal = tested on: A498 renal
HL-60(TB) leukemia = tested on: HL-60(TB) leukemia
CAKI-1 renal = tested on: CAKI-1 renal

## C=CC1(c2ccc(-c3ccccc3)cc2)OCCO1
OVCAR-3 ovarian
  TGI: > 100 µM
ACHN renal
  TGI: > 100 µM
MALME-3M melanoma
  TGI: > 100 µM
T-47D breast
  TGI: > 100 µM
UO-31 renal
  TGI: > 100 µM
MDA-N
  TGI: > 100 µM
EKVX NSCLC
  TGI: > 100 µM
SF-539 CNS
  TGI: > 100 µM
NCI/ADR-RES ovarian
  TGI: > 100 µM
U251 CNS
  TGI: > 100 µM
RXF 393 renal
  TGI: 88.6 µM
HOP-92 NSCLC
  TGI: 87.1 µM
SF-295 CNS
  TGI: > 100 µM
HS 578T breast
  TGI: 69 µM
PC-3 prostate
  TGI: > 100 µM
OVCAR-5 ovarian
  TGI: > 100 µM
HT29 colon
  TGI: 81.2 µM
OVCAR-8 ovarian
  TGI: > 100 µM
786-0 renal
  TGI: > 100 µM
MOLT-4 leukemia
  TGI: > 100 µM
IGROV1 ovarian
  TGI: > 100 µM
MCF7 breast
  TGI: > 100 µM
MDA-MB-435
  TGI: > 100 µM
LOX IMVI melanoma
  TGI: > 100 µM
COLO 205 colon
  TGI: > 100 µM
NCI-H460 lung
  TGI: > 100 µM
SN12C renal
  TGI: > 100 µM
OVCAR-4 ovarian
  TGI: > 100 µM
HOP-62 NSCLC
  TGI: > 100 µM
SK-MEL-5 melanoma
  TGI: > 100 µM
SF-268 CNS
  TGI: > 100 µM
K-562 leukemia
  TGI: 61.9 µM
SW-620 colon
  TGI: > 100 µM
SNB-19 CNS
  TGI: > 100 µM
UACC-257 melanoma
  TGI: > 100 µM
SK-MEL-28 melanoma
  TGI: > 100 µM
NCI-H522 lung
  TGI: > 100 µM
DU-145 prostate
  TGI: > 100 µM
NCI-H23 lung
  TGI: 89.8 µM
SK-OV-3 ovarian
  TGI: > 100 µM
MDA-MB-231 breast
  TGI: > 100 µM
HCT-15 colon
  TGI: > 100 µM
NCI-H226 lung
  TGI: 64.1 µM
SNB-75 CNS
  TGI: > 100 µM
SK-MEL-2 melanoma
  TGI: 53.7 µM
KM12 colon
  TGI: > 100 µM
UACC-62 melanoma
  TGI: 89.1 µM
TK-10 renal
  TGI: > 100 µM
SR leukemia
  TGI: 84.6 µM
HCC-2998 colon
  TGI: > 100 µM
RPMI-8226 leukemia
  TGI: > 100 µM
M14 melanoma
  TGI: > 100 µM
CCRF-CEM leukemia
  TGI: 86.4 µM
A549 NSCLC
  TGI: > 100 µM
HCT-116 colon
  TGI: > 100 µM

## OC1CCCCCCCCCCC1SCCCCl (stereo not given)
OVCAR-3 ovarian
  TGI: > 100 µM
ACHN renal
  TGI: > 100 µM
MALME-3M melanoma
  TGI: > 100 µM
T-47D breast
  TGI: > 100 µM
A498 renal
  TGI: > 100 µM
UO-31 renal
  TGI: > 100 µM
HL-60(TB) leukemia
  TGI: > 100 µM
MDA-N
  TGI: > 100 µM
EKVX NSCLC
  TGI: > 100 µM
SF-539 CNS
  TGI: > 100 µM
NCI/ADR-RES ovarian
  TGI: > 100 µM
CAKI-1 renal
  TGI: > 100 µM
U251 CNS
  TGI: > 100 µM
RXF 393 renal
  TGI: > 100 µM
HOP-92 NSCLC
  TGI: > 100 µM
SF-295 CNS
  TGI: > 100 µM
HS 578T breast
  TGI: > 100 µM
PC-3 prostate
  TGI: > 100 µM
OVCAR-5 ovarian
  TGI: > 100 µM
HT29 colon
  TGI: > 100 µM
OVCAR-8 ovarian
  TGI: > 100 µM
786-0 renal
  TGI: > 100 µM
MOLT-4 leukemia
  TGI: > 100 µM
IGROV1 ovarian
  TGI: > 100 µM
MCF7 breast
  TGI: > 100 µM
MDA-MB-435
  TGI: > 100 µM
LOX IMVI melanoma
  TGI: > 100 µM
COLO 205 colon
  TGI: > 100 µM
NCI-H460 lung
  TGI: > 100 µM
SN12C renal
  TGI: > 100 µM
OVCAR-4 ovarian
  TGI: > 100 µM
HOP-62 NSCLC
  TGI: > 100 µM
SK-MEL-5 melanoma
  TGI: > 100 µM
SF-268 CNS
  TGI: > 100 µM
K-562 leukemia
  TGI: > 100 µM
SW-620 colon
  TGI: > 100 µM
SNB-19 CNS
  TGI: > 100 µM
UACC-257 melanoma
  TGI: > 100 µM
SK-MEL-28 melanoma
  TGI: > 100 µM
NCI-H522 lung
  TGI: > 100 µM
DU-145 prostate
  TGI: > 100 µM
NCI-H23 lung
  TGI: > 100 µM
SK-OV-3 ovarian
  TGI: > 100 µM
MDA-MB-231 breast
  TGI: > 100 µM
HCT-15 colon
  TGI: > 100 µM
NCI-H226 lung
  TGI: > 100 µM
SK-MEL-2 melanoma
  TGI: > 100 µM
KM12 colon
  TGI: > 100 µM
UACC-62 melanoma
  TGI: > 100 µM
TK-10 renal
  TGI: > 100 µM
SR leukemia
  TGI: > 100 µM
HCC-2998 colon
  TGI: > 100 µM
RPMI-8226 leukemia
  TGI: > 100 µM
M14 melanoma
  TGI: > 100 µM
A549 NSCLC
  TGI: > 100 µM
HCT-116 colon
  TGI: > 100 µM

## COP(=O)(OC)/C(=C/c1cn(C(C)=O)c2ccccc12)NC(C)=O
OVCAR-3 ovarian
  TGI: 66.2 µM
ACHN renal
  TGI: > 100 µM
T-47D breast
  TGI: > 100 µM
A498 renal
  TGI: 94.3 µM
HL-60(TB) leukemia
  TGI: 42.6 µM
MDA-N
  TGI: 36.3 µM
NCI/ADR-RES ovarian
  TGI: > 100 µM
CAKI-1 renal
  TGI: > 100 µM
U251 CNS
  TGI: > 100 µM
SF-295 CNS
  TGI: > 100 µM
HS 578T breast
  TGI: > 100 µM
PC-3 prostate
  TGI: > 100 µM
OVCAR-5 ovarian
  TGI: > 100 µM
HT29 colon
  TGI: > 100 µM
OVCAR-8 ovarian
  TGI: > 100 µM
IGROV1 ovarian
  TGI: > 100 µM
MCF7 breast
  TGI: > 100 µM
MDA-MB-435
  TGI: > 100 µM
LOX IMVI melanoma
  TGI: 41.9 µM
COLO 205 colon
  TGI: > 100 µM
NCI-H460 lung
  TGI: > 100 µM
SN12C renal
  TGI: > 100 µM
OVCAR-4 ovarian
  TGI: > 100 µM
HOP-62 NSCLC
  TGI: > 100 µM
SK-MEL-5 melanoma
  TGI: > 100 µM
K-562 leukemia
  TGI: > 100 µM
SW-620 colon
  TGI: > 100 µM
UACC-257 melanoma
  TGI: > 100 µM
SK-MEL-28 melanoma
  TGI: > 100 µM
NCI-H522 lung
  TGI: > 100 µM
DU-145 prostate
  TGI: > 100 µM
NCI-H23 lung
  TGI: > 100 µM
SK-OV-3 ovarian
  TGI: > 100 µM
MDA-MB-231 breast
  TGI: > 100 µM
HCT-15 colon
  TGI: 66.4 µM
SNB-75 CNS
  TGI: > 100 µM
SK-MEL-2 melanoma
  TGI: > 100 µM
TK-10 renal
  TGI: > 100 µM
SR leukemia
  TGI: > 100 µM
RPMI-8226 leukemia
  TGI: 45.3 µM
M14 melanoma
  TGI: > 100 µM
CCRF-CEM leukemia
  TGI: 58.3 µM
A549 NSCLC
  TGI: > 100 µM
HCT-116 colon
  TGI: > 100 µM
